Key:
Aminopeptidase N [1] = assay: Aminopeptidase N cleavage of test substrates (HPLC); type: biochemical; settings: 1 mM test substrate, 0.02 U APN, 37° C., 25 minutes
Method: Aminopeptidase N cleaves amino acids at the N-terminus of proteins and peptides attached to another amino acid. The final attachment in our test substrates consists of an amino acid linked to a hydrazide. The cleavage of this amino acid by aminopeptidases exposes the reactive hydrazide species. Our goal was to study the cleavage of amide bond between an amino acid and a hydrazide by aminopeptidase N. A stock solution of test substrates was prepared in 100% DMSO at a concentration of 25 mM. The stock soluton (6 μL) was added to buffer (50 mM Hepes/pH 7.5, 10 mM CaCl2, 0.1% Brij) for a final concentration of 1 mM test substrate in the reaction. To this reaction mix 0.02 U of the enzyme (APN) was added, the solution was mixed, and immediately 67.5 μL of the mix was transferred to HPLC vials containing 33.2 μL of acetic acid for t=0 minute measurement. The rest of the mix in the test tube was incubated at 37° C. for 25 minutes. At the 25 minutes time point 67.5 μL of the mix was transferred to the HPLC vial containing 33.2 μl of acetic acid for t=25 minute measurement. […] The peak areas were integrated and the substrate peak area was used to determine rate constant k in the following equation: K={(% hydrolyzed/100)*[S]}/[E]*[time] where • S=test substrate concentration in μmoles • E=aminopeptidase N concentration in units/ml • K=μmoles of substrate hydrolyzed/minute/unit enzyme
The procedures of Examples 63 and 64 were used to prepare these additional enamides. The ability of aminopeptidase-N (APN) to remove the terminal amino acid was determined by using the procedure described in Example 46.

THP-1 cells = assay: Lipid bilayer insertion / cell binding of test substrates; type: cell-based, human; settings: live cell suspensions
Method: This assay was designed to study localization of test substrates in lipid bilayers of cells. THP-1 cell line a human monocytic cell line was used in this assay. THP-1 cells were washed with phosphate buffered saline (PBS) and 2×10^6 cells were used for each reaction in a 150 μL reaction volume. Test substrates were added to these cell suspensions to give a final concentration of 0.15 mM in the reaction. The reactions were incubated at 37° C. for 1 hour. The test compound in the supernatant was analyzed by HPLC and quantified. The level of compound in the supernatant in the presence and absence of cells was determined and the following ratio was generated: R=Level of compound in absence of cells/level of compound in the presence of cells
The ratio increases with increased binding to cells. A ratio of 1 denotes no binding to cells.

Aminopeptidase N [2] = assay: Aminopeptidase N cleavage of test substrates (HPLC); type: biochemical; settings: n = 2; for Rate, hydrolysis of N-terminal residue by APN (value in parenthesis): enzyme concentration […] 10^3 U; for Rate, hydrolysis of N-terminal residue by APN: enzyme concentration […] 10^4 U

Rate of hydrolysis (min^−1, U^−1) (Aminopeptidase N [1])	SMILES	Rate, hydrolysis of N-terminal residue by APN (value in parenthesis) (Aminopeptidase N [2])	Rate, hydrolysis of N-terminal residue by APN (Aminopeptidase N [2])	other results
0.6 μmoles μmoles (min^−1, U^−1)	CC(C)C[C@H](N)C(=O)NNC(=O)c1ccc(CNC(=O)c2ccc(N/N=C/c3ccccc3S(=O)(=O)O)nc2)cc1 [Example 8, 2-[(1E)-2-({5-[N-({4-[N-((2S)-2-Amino-4-methylpentanoylamino)carbamoyl]phenyl}methyl)carbamoyl](2-pyridyl)}amino)-2-azavinyl]benzenesulfonic Acid]	–	–	–
–	O=C(CCCCCCCc1ccc(O)cc1)NCCNC(=O)c1ccc(N/N=C/c2ccccc2S(=O)(=O)O)nc1 [Example 26, 2-((1E)-2-Aza-2-{[5-(N-{2-[8-(4-hydroxyphenyl)octanoylamino]ethyl}-carbamoyl)(2-pyridyl)]amino}vinyl)benzenesulfonic Acid]	–	–	association with cells (in words) (THP-1 cells): will associate with cells
–	CC(=O)NCCCCCC/C=C/NC(=O)[C@@H](N)CC(C)C.O=CO [Example 63, N-[(1E)-8-(Acetylamino)oct-1-enyl](2S)-2-amino-4-methylpentanamide, Formic Acid Salt]	0.167 mmol substrate · min^−1 · U enzym^−1	0.202 mmol substrate · min^−1 · U enzym^−1	–
–	CCC/C=C(\CCC)NC(=O)[C@@H](N)CC(C)C [Example 333]	0.209 mmol substrate · min^−1 · U enzym^−1	0.264 mmol substrate · min^−1 · U enzym^−1	–
1.2 μmoles μmoles (min^−1, U^−1)	CC(C)C[C@H](N)C(=O)NNC(=O)c1ccc(N/N=C\c2ccccc2S(=O)(=O)O)nc1 [Example 7, 2-[2-({5-[N-((2S)-2-Amino-4-methylpentanoylamino)carbamoyl](2-pyridyl)}amino)(1Z)-2-azavinyl]benzenesulfonic Acid]	–	–	–
0 μmoles μmoles (min^−1, U^−1)	CC(C)C[C@H](N)C(=O)NNc1ccc(C(=O)NCCNC(=O)c2ccc(N/N=C/c3ccccc3S(=O)(=O)O)nc2)cc1 [Example 6, 2-{(1E)-2-[(5-{N-[2-({4-[((2S)-2-Amino-4-methylpentanoylamino)amino]phenyl}carbonylamino)ethyl]carbamoyl}(2-pyridyl))amino]-2-azavinyl}benzenesulfonic Acid]	–	–	–
–	CCC/C=C(\CCC)NC(=O)[C@H](C)NC(=O)[C@@H](N)CC(C)C [Example 332]	0.802 mmol substrate · min^−1 · U enzym^−1	1.89 mmol substrate · min^−1 · U enzym^−1	–
0.62 μmoles μmoles (min^−1, U^−1)	COc1ccc2cc(C(=O)NCCCCCC(=O)NNC(=O)[C@@H](N)CC(C)C)c(=O)oc2c1 [Example 9, N-((2S)-2-Amino-4-methylpentanoylamino)-6-[(7-methoxy-2-oxo(2H-chromen-3-yl))carbonylamino]hexanamide]	–	–	–

SMILES	Rate of hydrolysis (min^−1, U^−1) (Aminopeptidase N [1])	Rate, hydrolysis of N-terminal residue by APN (value in parenthesis) (Aminopeptidase N [2])	Rate, hydrolysis of N-terminal residue by APN (Aminopeptidase N [2])	other results
CC(C)C[C@H](N)C(=O)Nc1ccc(COC(=O)NNC(=O)CCCCCNC(=O)c2ccc(N/N=C/c3ccccc3S(=O)(=O)O)nc2)cc1 [Example 24, 2-((1E)-2-{[5-(N-{5-[N-({[4-((2S)-2-Smino-4-methylpentanoylamino)phenyl]methoxy}carbonylamino)carbamoyl]pentyl}carbamoyl)(2-pyridyl)]amino}-2-azavinyl)benzenesulfonic Acid]	0.52 μmoles μmoles (min^−1, U^−1)	–	–	–

From patent US20050106100A1, “Compounds containing matrix metalloproteinase substrates and methods of their use” (priority 2003, published 2005)
